Assay [1] relates to fever. The settings on record: compared with α-MSH; cited from earlier work.
Assay [2] can be described thus: Potency/efficacy of α-MSH fragments and derivatives compared to parent α-MSH (anti-inflammatory and/or antipyretic properties). The settings on record: discovered by the inventors; no method or data given. From the text: It is contemplated that derivatives of α-MSH will have analogous function. It is understood that derivatives of α-MSH means functionally equivalent peptides. […] Thus, α-MSH derivative would include, among others, the partial segments of the 13 amino acid peptide. Specifically, α-MSH is composed of the following sequence of amino acids: SYSMEHFRWGKPV (SEQ ID. NO. 1). […] These derivatives of the parent α-MSH are functional equivalents.

Assay [3] relates to IL-6 production by gliadin-stimulated duodenal mucosa. Description: Gliadin-stimulated cytokine production by duodenal mucosa specimens incubated 24 h in vitro, with or without synthetic α-MSH. The settings on record: co-incubation with α-MSH 10^−5 M, controls, untreated celiac and treated celiac patients (all groups), ELISA. The class given is cell-based, human. The source says: (§1) Four biopsy specimens from the distal duodenum were obtained during upper gastrointestinal endoscopy. Two of such specimens were fixed in 10% formalin and paraffin embedded for standard histological examination. The remaining two specimens from each subject were available for this research and were allocated for either 1) RT-PCR and immunohistochemical studies (N=20: 9 celiac, 7 celiac on diet, 4 normal); 2) cytokine production in vitro in the presence or absence of α-MSH(N=22: 11 celiac, 6 celiac on diet, 5 normal); or 3) cytokine production in vitro after gliadin stimulation in the presence or absence of α-MSH(N=25: 14 celiac, 6 celiac on diet, 5 normal).
(§2) A series of 47 specimen pairs were used to evaluate cytokine production by celiac mucosa in vitro and the influence of α-MSH on such production. […]
(§3) α-MSH was measured using a double-antibody radioimmunoassay (RIA) method (Eurodiagnostica, Malmo, Sweden); the sensitivity calculated from a decrease in binding of 2 SD in the zero standard was 4.8 pg/ml and the cross-reactivity with other POMC peptides (ACTH [1-24], ACTH [1-39], β-MSH, γ-MSH) is <0.002%. IL-1β, IL-6, and TNF-α were determined using commercial ELISA methods (Amersham Pharmacia Biotech, Little Chalfont, UK).
(§4) Values were expressed as means±SEM. […]

In assay [4] the test system is IL-1β, IL-6 and TNF-α production by celiac mucosa. Kind of assay: Spontaneous (non-stimulated) cytokine production by duodenal mucosa specimens incubated 24 h in vitro, with or without synthetic α-MSH. The class given is cell-based, human. The settings on record: α-MSH 10^−5 M in incubation medium, no gliadin.
From the text: as §1, §2, §3, §4

For assay [5] the following is noted: has been shown; no method given; cited from earlier work.
For assay [6] the following is noted: compared with L-form tripeptide; cited from earlier work.

Entries after “also recorded” stand apart in the source; their conditions may differ. Where no end group is shown, it is not given here. [ ]: non-standard residue; d: D form. dNle = CCCC[C@@H](N)C(=O)O

Take [Nle^4,D-Phe^7]-α-MSH: the “Potency in reducing fever relative to the parent peptide α-MSH” value in assay [1] was “approximately ten times more potent”.
For the substance “His-DNle-Arg-Trp-Phe-Lys-Pro-Val (H[dNle]RWFKPV)”, the “Potency over the parent α-MSH and its derivatives” value in assay [2] is recorded as “increased potency”.
For “SYSMEHFRWGKPV [α-MSH, 13 amino acid peptide produced by post-translational processing of pro-opiomelanocortin; synthetic peptide used in the tests]”, the “IL-6 production/release in supernatants of gliadin-stimulated duodenal specimens” value in assay [3] is “significantly decreased; also recorded: substantial reduction; also recorded: significantly reduced; also recorded: statistically significant inhibition”. Further, the “Non-stimulated 24 h production of IL-1β, IL-6 and TNF-α by celiac mucosa after addition of α-MSH” value in assay [4] is on record as “no change”.
KPV: the “Potency/efficacy compared to parent α-MSH” value in assay [5] is “as potent or more potent than the parent α-MSH”.
Take Ac-[D-K11]-α-MSH 11-13-NH2: in assay [6], the “Potency relative to the L-form of the tripeptide α-MSH (11-13)” value is reported as “same general potency”.

These data come from US20040219232A1, “Methods and compounds for treating malabsorption diseases and inflammatory conditions of the gastrointestinal tract” (Zengen, Inc., priority 2003, published 2004).
